We go through 15 compounds from paper PMC7662656, “Pyrazole Incorporated New Thiosemicarbazones: Design, Synthesis and Investigation of DPP-4 Inhibitory Effects” (Molecules, 2020).

One data set concerns the target T1, DPP-4 (Homo sapiens, UniProt P27487).
T1 construct: purchased Cayman Chemicals, Ann Arbor, MI, USA
Put plainly: DPP-4 Inhibitor Screening Assay (fluorescence-based, Gly-Pro-AMC substrate). It counts as biochemical. Particulars: mean ± SD; for inhibition at 100 µM: compound at 100 µM, triplicate; for IC50: five concentrations 10^−1 to 10^−5 µM, read-out: IC50 for DPP-4 inhibition. Here is the method:
This assay kit allows DPP-4 measurement using Gly-Pro-Aminomethylcoumarin (AMC) as a fluorogenic substrate. The free AMC group is released through the cleavage of the peptide bond by DPP leading to fluorescence that can be examined using appropriate excitation and emission wavelengths. Briefly, the experiment was performed triplicate in a white flat bottom 96 well plate. Thirty microlitres of assay buffer, 10 µL of DPP-4 enzyme, 10 µL of dimethyl sulfoxide (DMSO), and 50 µL of DPP substrate were added to 100% initial activity wells. Forty microlitres of assay buffer, 10 µL of DMSO, and 50 µL of DPP substrate were added to background wells. Thirty microlitres of assay buffer, 10 µL of DPP-4 enzyme, 10 µL of sample, and 50 µL of DPP substrate were added to inhibitor wells. […] The plate was incubated for 30 min at 37 °C, and fluorescence measurements were analyzed using an excitation wavelength of 360/40 nm and an emission wavelength of 460/40 nm in a multi-mode plate reader (Synergy HTX S1LFA, BioTek Instruments, Winooski, VT, USA). All assays were performed in triplicate. The fluorescence of the background wells was subtracted from all other wells before the calculations. The per cent inhibition was determined by the following formula in equation 1:Inhibition% = [(Initial activity − Inhibitor)/Initial Activity] × 100(1)

A short description of data set [1]: MTT cytotoxicity assay on NIH/3T3 cells. The data set is classed as cell-based. The following applies: mouse, NIH/3T3 mouse embryonic fibroblast cells, 24 h incubation, 31.25-500 µM, read-out: IC50 cytotoxicity towards NIH/3T3 cell line. The method, then:
NIH/3T3 mouse embryonic fibroblast (normal) cells (ATCC® CRL-1658™) were grown in RPMI 1640 medium (Sigma-Aldrich, St. Louis, MO, USA) supplemented with 2 mM L-glutamine (Gibco, Paisley, UK), 10% fetal bovine serum (Gibco, Paisley, UK) and 1% penicillin/streptomycin (Gibco, Paisley, UK) at 37 °C in a humidified incubator with a 5% CO2 atmosphere. Compounds 2a–o were dissolved in DMSO (Sigma-Aldrich, St. Louis, MO, USA) and diluted to required concentrations with a fresh medium. The control group (solvent control) was prepared with a medium containing 0.1% DMSO. […]
In order to determine IC50 concentrations of compounds 2a–o, cell viability was determined by MTT assay. […] The absorbance values were measured at 540 nm using a Cytation 3 Cell Imaging Multi-Mode Reader (BioTek, Winooski, VT, USA). Cell survival rates were expressed as the percentage of the DMSO (0.1%) solvent control and IC50 concentrations were calculated according to the analysis result.
Background: Formazan colour is commonly taken as a measure of viable cells.

T1 sequence (P27487 whole entry): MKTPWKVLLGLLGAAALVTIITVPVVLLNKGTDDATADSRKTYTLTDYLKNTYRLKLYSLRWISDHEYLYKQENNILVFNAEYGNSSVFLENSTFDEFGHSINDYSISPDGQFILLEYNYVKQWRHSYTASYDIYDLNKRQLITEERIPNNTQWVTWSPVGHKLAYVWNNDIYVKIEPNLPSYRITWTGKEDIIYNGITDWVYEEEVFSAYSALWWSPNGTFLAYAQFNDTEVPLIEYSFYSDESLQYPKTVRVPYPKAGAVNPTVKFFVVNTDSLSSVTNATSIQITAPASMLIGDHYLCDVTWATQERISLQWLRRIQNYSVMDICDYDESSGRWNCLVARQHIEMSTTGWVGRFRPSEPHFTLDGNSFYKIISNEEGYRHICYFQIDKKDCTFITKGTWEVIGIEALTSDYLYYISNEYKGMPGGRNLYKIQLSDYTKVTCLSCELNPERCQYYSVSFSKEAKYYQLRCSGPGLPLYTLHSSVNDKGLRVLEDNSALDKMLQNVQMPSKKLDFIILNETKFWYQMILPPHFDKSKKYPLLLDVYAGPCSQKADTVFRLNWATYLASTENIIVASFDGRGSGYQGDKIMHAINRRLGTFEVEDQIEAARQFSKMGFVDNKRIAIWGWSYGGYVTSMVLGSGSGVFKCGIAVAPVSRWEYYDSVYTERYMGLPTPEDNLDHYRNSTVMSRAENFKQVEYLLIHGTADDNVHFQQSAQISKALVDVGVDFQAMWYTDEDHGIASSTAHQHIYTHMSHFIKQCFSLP

Take `S=C(N/N=C/c1ccccc1)Nc1ccc(-n2cccn2)cc1` [Compound 2a, [4-(1H-Pyrazol-1-yl)phenyl]-1-(benzylidene)thiosemicarbazide]: on DPP-4, the inhibition at 100 µM is 20.7 ± 1.82%.

Regarding `O=[N+]([O-])c1ccc(/C=N/NC(=S)Nc2ccc(-n3cccn3)cc2)cc1` [Compound 2b, [4-(1H-Pyrazol-1-yl)phenyl]-1-(4-nitrobenzylidene)thiosemicarbazide], the inhibition at 100 µM at DPP-4 was 35.5 ± 1.75%.

`N#Cc1ccc(/C=N/NC(=S)Nc2ccc(-n3cccn3)cc2)cc1` [Compound 2c, [4-(1H-Pyrazol-1-yl)phenyl]-1-(4-cyanobenzylidene)thiosemicarbazide]: on DPP-4, the inhibition at 100 µM worked out at 28 ± 1.63%.

Turning to `Fc1ccc(/C=N/NC(=S)Nc2ccc(-n3cccn3)cc2)cc1` [Compound 2d, [4-(1H-Pyrazol-1-yl)phenyl]-1-(4-fluorobenzylidene)thiosemicarbazide], at DPP-4, the inhibition at 100 µM was 27.3 ± 2.03%.

Turning to `S=C(N/N=C/c1ccc(Cl)cc1)Nc1ccc(-n2cccn2)cc1` [Compound 2e, [4-(1H-Pyrazol-1-yl)phenyl]-1-(4-chlorobenzylidene)thiosemicarbazide], the inhibition at 100 µM on DPP-4 came out at 38.4 ± 2.14%.

Regarding `S=C(NN=Cc1ccc(Br)cc1)Nc1ccc(-n2cccn2)cc1` [Compound 2f, 4-[4-(1H-pyrazol-1-yl)phenyl]-1-(4-bromobenzylidene)thiosemicarbazide], the IC50 at 24 h in data set [1] was over 500 µM. Also, the IC50 on DPP-4 came out at 0.00127 ± 0.000264 µM.

As to `FC(F)(F)c1ccc(/C=N/NC(=S)Nc2ccc(-n3cccn3)cc2)cc1` [Compound 2g, [4-(1H-Pyrazol-1-yl)phenyl]-1-(4-trifluoromethylbenzylidene)thiosemicarbazide], at DPP-4, the inhibition at 100 µM was over 60% and the IC50 amounted to 0.00478 ± 0.000296 µM.

Turning to `Cc1ccc(/C=N/NC(=S)Nc2ccc(-n3cccn3)cc2)cc1` [Compound 2h, [4-(1H-Pyrazol-1-yl)phenyl]-1-(4-methylbenzylidene)thiosemicarbazide], the inhibition at 100 µM on DPP-4 stood at 53.2 ± 3.1%.

Regarding `COc1ccc(/C=N/NC(=S)Nc2ccc(-n3cccn3)cc2)cc1` [Compound 2i, [4-(1H-Pyrazol-1-yl)phenyl]-1-(4-methoxybenzylidene)thiosemicarbazide], on DPP-4, the inhibition at 100 µM was over 60% and the IC50 is 0.04331 ± 0.000372 µM.

In the case of `CS(=O)(=O)c1ccc(/C=N/NC(=S)Nc2ccc(-n3cccn3)cc2)cc1` [Compound 2j, [4-(1H-Pyrazol-1-yl)phenyl]-1-(4-methylsulfonylbenzylidene)thiosemicarbazide], the inhibition at 100 µM on DPP-4 worked out at 59.8 ± 1.13%.

As for `CSc1ccc(/C=N/NC(=S)Nc2ccc(-n3cccn3)cc2)cc1` [Compound 2k, [4-(1H-Pyrazol-1-yl)phenyl]-1-(4-methylthiobenzylidene)thiosemicarbazide], on DPP-4, the inhibition at 100 µM is over 60% and the IC50 came to 0.0227 ± 0.000301 µM.

For the compound `CN(C)c1ccc(/C=N/NC(=S)Nc2ccc(-n3cccn3)cc2)cc1` [Compound 2l, [4-(1H-Pyrazol-1-yl)phenyl]-1-(4-dimethylaminobenzylidene)thiosemicarbazide], the inhibition at 100 µM at DPP-4 came to 57.3 ± 1.04%.

Turning to `CC(C)c1ccc(/C=N/NC(=S)Nc2ccc(-n3cccn3)cc2)cc1` [Compound 2m, [4-(1H-Pyrazol-1-yl)phenyl]-1-(4-isopropylbenzylidene)thiosemicarbazide], the inhibition at 100 µM at DPP-4 was found to be 47.4 ± 1.29%.

With `CC(C)(C)c1ccc(/C=N/NC(=S)Nc2ccc(-n3cccn3)cc2)cc1` [Compound 2n, [4-(1H-Pyrazol-1-yl)phenyl]-1-(4-tert-butylbenzylidene)thiosemicarbazide], the inhibition at 100 µM on DPP-4 was 28.6 ± 1.76%.

Consider `S=C(N/N=C/c1ccc(-c2ccccc2)cc1)Nc1ccc(-n2cccn2)cc1` [Compound 2o, [4-(1H-Pyrazol-1-yl)phenyl]-1-(4-phenylbenzylidene)thiosemicarbazide], for which, on DPP-4, the inhibition at 100 µM is over 60% and the IC50 amounted to 0.0181 ± 0.000311 µM.

Broadly, the inhibition is the drop in the measured response relative to a control, in per cent.
